Reference: US7989613B2, “Inhibition of metallo-β-lactamase by RNA” (priority 2005, dated 2011)
Entries after “also recorded” stand apart in the source; their conditions may differ. Read-outs that look alike come from different tables or passages of the source.

What was measured:
[1] = target: B. cereus 5/B/6 metallo-β-lactamase (Bacillus cereus, UniProt P14488); conditions: for IC50: […] cephalosporin C; for Ki: steady-state kinetics
Protocol: Assay of the purified B. cereus 5/B/6 metallo-β-lactamase and B. cereus 569/H/9 β-lactamase I. Metallo-β-lactamase activity assays using cephalosporin C as substrate were determined as previously reported (Myers and Shaw, 1989). The cephalosporin C absorbance maximum at 260 nm was monitored as a function of time (Davies et al., 1974). One unit of activity is generally defined as the amount of enzyme required to catalyze the hydrolysis of about 1 μmol of β-lactam substrate (cephalosporin C) per minute at 30° C. at pH 7.0. […] The assays were carried out at 30° C. in a 0.1 cm path length quartz cell and the total assay volume was 250 μL.
Reversible inhibition studies for metallo-β-lactamase. To test for reversible inhibition, metallo-β-lactamase was incubated with various concentrations of the possible inhibitors in 50 mM MOPS buffer, pH 7.0. The enzyme activity remaining was determined (Myers and Shaw, 1989).
Various assays were conducted with the 30-mer RNA in the presence of metallo-β-lactamase to determine its inhibition values (IC50, Ki, and Ki′). The 30-mer RNA was tested for inhibition of β-lactamase I and bovine carboxypeptidase A. The 30-mer RNA was also tested for inhibition of metallo-β-lactamase in the presence of Zn^2+.
30-mer RNA. The IC50 value for the 30-mer RNA was determined by measuring the rate of enzymatic hydrolysis of cephalosporin C with different amounts of the 30-mer RNA.

[2] = target: B. cereus 569/H/9 β-lactamase I (Bacillus cereus, UniProt P00809); conditions: 250 nM of the 30-mer (23×IC50); 1.1 mM benzylpenicillin, 50 mM MOPS pH 7.0; listed as 30-mer
Protocol: The β-lactamase I activity assays used was modified from Davies et al. (1974), which described a general method of β-lactamase I activity assays. Briefly, the enzyme was incubated with 20 mM EDTA (pH 7.0) for 15 min. at room temperature prior to the assay. The enzymatic hydrolysis of 1.1 mM benzylpenicillin in […] MOPS (pH 7.0) and 1 mM EDTA was continuously monitored at 231 nm at 30° C. in a 1-cm pathlength quartz cell in a total volume of 1 mL. One unit of β-lactamase activity was generally defined as the amount of enzyme required to hydrolyze about one μmole of substrate/min. at 30° C. at pH 7.0.
An experiment was performed to test the specificity of inhibition of the 30-mer (Seq ID No.:6). The inhibition of B. cereus 569/H/9 β-lactamase I (Seq ID No.:7) was tested using various concentrations of the 30-mer RNA. The concentration of the substrate (benzylpenicillin) was 1.1 mM in the buffer (50 mM MOPS (pH 7.0)/1 […] EDTA).

[3] = target: T1, bovine carboxypeptidase A (Bos taurus, UniProt P00730); experiment: Inhibition of carboxypeptidase A (hydrolysis of hippuryl-L-phenylalanine, 254 nm); format: biochemical; conditions: 250 nM of the 30-mer (23×IC50), 1 mM hippuryl-L-phenylalanine, 0.05 M Tris-HCl pH 7.5, 0.5 M NaCl
T1 construct: purchased Sigma
T1 sequence (P00730 111-419): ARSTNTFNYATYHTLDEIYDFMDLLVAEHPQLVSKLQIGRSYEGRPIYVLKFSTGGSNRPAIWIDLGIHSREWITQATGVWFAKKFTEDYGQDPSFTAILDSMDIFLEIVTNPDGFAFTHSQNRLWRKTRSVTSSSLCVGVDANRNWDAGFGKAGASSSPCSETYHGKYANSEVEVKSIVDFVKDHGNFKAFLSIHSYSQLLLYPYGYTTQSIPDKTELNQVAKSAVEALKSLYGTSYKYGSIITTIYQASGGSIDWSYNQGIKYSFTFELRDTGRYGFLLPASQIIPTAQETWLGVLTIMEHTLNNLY
Protocol: Assay of bovine carboxypeptidase A. The assay of bovine carboxypeptidase A is based on the method of Folk and Schirmer (1963). The rate of hydrolysis of hippuryl-L-phenylalanine is determined by monitoring the increase in absorbance at 254 nm (25° C., pH 7.5). The enzyme was dissolved in 10% lithium chloride to a concentration of 1-3 units per mL. Hippuryl-L-phenylalanine (0.001 M) was dissolved in 0.05 M Tris-HCl, pH 7.5, with 0.5 M sodium chloride. In a 1-cm pathlength cuvette, 1.0 mL of substrate was added and incubated in the spectrophotometer at 25° C. for 3-4 minutes to reach temperature equilibration and to establish blank rate. 50 μL of diluted enzyme was added to record the increase in AbS254.
In addition, the zinc dependent bovine carboxypeptidase A was used to test the specificity of inhibition by this 30-mer. […] The concentration of the substrate (hippuryl-L-phenylalanine) was 1 mM in the buffer (0.05 M Tris-HCl, pH 7.5, with 0.5 M sodium chloride).

B. cereus 5/B/6 metallo-β-lactamase, sequence (P14488 29-256, looked up, natural form): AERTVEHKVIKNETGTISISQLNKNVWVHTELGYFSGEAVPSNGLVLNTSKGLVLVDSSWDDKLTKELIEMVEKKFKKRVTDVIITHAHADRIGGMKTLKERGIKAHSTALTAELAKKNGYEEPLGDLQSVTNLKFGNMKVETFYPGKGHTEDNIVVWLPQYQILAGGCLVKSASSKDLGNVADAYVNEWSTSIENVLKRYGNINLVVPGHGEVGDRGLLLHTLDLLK
B. cereus 569/H/9 β-lactamase I, sequence (P00809 28-306): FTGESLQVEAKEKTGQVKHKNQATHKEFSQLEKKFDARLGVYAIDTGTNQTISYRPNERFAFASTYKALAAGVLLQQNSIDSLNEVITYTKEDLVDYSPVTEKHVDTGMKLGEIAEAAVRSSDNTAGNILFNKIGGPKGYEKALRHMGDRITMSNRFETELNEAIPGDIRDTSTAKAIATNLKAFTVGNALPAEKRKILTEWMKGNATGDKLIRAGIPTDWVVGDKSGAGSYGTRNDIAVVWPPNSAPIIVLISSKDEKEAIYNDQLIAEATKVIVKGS

Substance: 5′-UGGCUGCAGGGUCUGGCCCCCCGUUUGGUG-3′ (UGGCUGCAGGGUCUGGCCCCCCGUUUGGUG; chemistry not given here) [30-mer RNA, 30-mer RNA aptamer selected by twelve rounds of SELEX against B. cereus 5/B/6 metallo-β-lactamase]
- IC50 ([1]; read-out: IC50 for B. cereus 5/B/6 metallo-β-lactamase in the presence of Zn2+ ions, 50 mM MOPS and 1 mM ZnSO4, pH 7.0): 19300 nM
- IC50 ([1]; read-out: IC50 for B. cereus 5/B/6 metallo-β-lactamase, 50 mM MOPS pH 7.0, no added Zn2+): 11 nM
- Ki ([1]; read-out: Ki (dissociation constant for the inhibitor from the enzyme-inhibitor complex), slope replot): 2 nM
- Ki ([1]; read-out: Ki′ (dissociation constant for the inhibitor from the enzyme-substrate-inhibitor complex), intercept replot): 15 nM
- IC50 / inhibition of metallo-β-lactamase, range in words ([1]; stated in words): nanomolar range
- type of inhibition ([1]; steady-state kinetic study, Lineweaver-Burk plot): noncompetitive inhibition
- effect on the activity of B. cereus 569/H/9 β-lactamase I [2]: no effect
- effect on the activity of carboxypeptidase A [3]: lack of inhibition; also recorded: do not show inhibition
- effect on the activity of carboxypeptidase A ([3]; listed as 30-mer): no effect
